Results published in US5242945A, “Tetronic and thiotetronic acid derivatives as phospholipase A2 inhibitors” (American Home Products Corporation, priority 1991, dated 1993).
Where two headings read alike, the source gives them in different places.

Tests used:
[1] = test system: lipoxygenase (LTB4 or 5HETE synthesis); experiment: inhibition of LTB4 and 5-HETE synthesis by rat glycogen-elicited polymorphonuclear leukocytes; assay type: cell-based, rat (female Wistar); conditions: Leukocyte, rat PMN; for inhibition at 10 µM: + with * denotes potentiation
From the text: This is especially true with respect to 5,12-diHETE, which is also denoted as LTB4 [see Ford-Hitchinson, J. Roy. Soc. Med., 74, 831 (1981)]. Compounds which inhibit the PLA2 -mediated release of arachidonic acid thereby effectively prevent the oxidation of arachidonic acid to the various leukotriene products via the lipoxygenase cascade. Accordingly, the specificity of action of PLA2 inhibitors can be determined by the activity of test compounds in this assay, which measures the ability of compounds to inhibit the synthesis of LTB4 and 5-HETE by rat glycogen-elicited polymorphonuclear leukocytes (PMN) in the presence of exogenous substrate.
(§1) Rat polymorphonuclear leukocytes (PMNs) are obtained from female Wistar rats (150-200 g) which receive an injection of 6% glycogen (10 ml i.p.). Rats are sacrificed 18-24 hours post injection by CO2 asphyxiation and the elicited cells are harvested by peritoneal lavage using physiological saline (0.9% NaCl). The exudate is centrifuged at 400 xg for 10 minutes. The supernatant fluid is discarded and the cell pellet is resuspended to a concentration of 2.0×10^7 cells/mL in HBSS containing Ca^++ and Mg^++ and 10 μM L-cysteine.
(§2) To 1 mL aliquots of cell suspension, test drugs or vehicle are added, then preincubated at 37° C. for 10 minutes. A23187 (1 μM), [^3 H]-AA (3.0 μCi/mL) and unlabeled AA (1 μM) are then added and the samples are further incubated for 10 minutes. The reaction is terminated by centrifugation and pelleting cells. Supernatants are then analyzed by HPLC analysis on a 15 cm×4.6 mm ID supelcosil LC-18 (Supelco)(3M) column, using a two solvent system at a flow rate of 1.4 mL total flow as follows:
Injections: 140 μL of each supernatant is injected directly onto column and ^3 H arachidonic acid metabolites are monitored using an on-line radioactivity detector (Ramona, IN/US, Fairfield, N.J.).
Co-chromatography with standard [^3 H] leukotriene B4 (LTB4) in medium of stimulated PMN exposed to drug is compared to that found in medium of stimulated cells exposed to no drug, generating percent inhibition.
Results are expressed as percent inhibition at a given compound dose or as an IC50 value.

[2] = test system: cyclooxygenase (PGE2 or TxB2 synthesis); experiment: inhibition of synthesis of cyclooxygenase products PGE2 and TxB2 by rat polymorphonuclear leukocytes; assay type: cell-based, rat (female Wistar); conditions: Leukocyte, rat PMN; for inhibition at 10 µM: + with * denotes potentiation
Method: as §1, §2
In this assay, the procedure of Example 58 is carried out as described. However, in order to determine cyclooxygenase activity, the samples are co-chromatographed with authentic reference [^3 H]-TxB2 or [^3 H]-PGE2.
The results are calculated as in Example 58 and presented below: […]

[3] = test system: purified PLA2, from the diamond back cotton mouth snake (A. piscivorus piscivorus); experiment: in vivo PLA2 murine paw edema assay; parameters: species or system A. piscivorus piscivorus PLA2 in CD-1 mice
[4] = test system: purified PLA2, from the diamond back cotton mouth snake (A. piscivorus piscivorus); experiment: in vivo PLA2 murine paw edema assay; parameters: species or system A. piscivorus piscivorus PLA2 in CD-1 mice; remark: listed apart in the source
carrageenan paw edema = experiment: rat carrageenan paw edema assay; assay type: in vivo, rat (Sprague-Dawley)
Method: The compounds of the invention are further tested in the rat carrageenan paw edema assay to determine their ability to inhibit the acute inflammatory response.
140-180 g Male Sprague-Dawley rats, in groups of 6 animals are injected subcutaneously in the right paw with 0.1 mL of 1% carrageenan at zero time. Mercury plethysmographic readings (mL) of the paw are made at zero time and 3 hours later. Test compounds are suspended or dissolved in 0.5% methylcellulose and given perorally 1 hour prior to carrageenan administration.
The increase in paw volume (edema in mL) produced by the carrageenan is measured. Paw edema is calculated (3 hour volume minus zero time volume), and percent inhibition of edema is determined. Unpaired Student's t-test is used to determine statistical significance.

SMILES: CCCC/C=C\CCCCCCCC(=O)C1=C(O)COC1=O [Example 25, 4-Hydroxy-3-((Z)-1-oxo-9-tetradecenyl)-2(5H)-furanone]
- inhibition at 10 µM ([1]; read-out: % Inhibition 5-HETE): 81%
- inhibition at 10 µM ([1]; read-out: % Inhibition LTB4): 8%
- inhibition at 10 µM ([2]; read-out: % Inhibition PGE2): 68%
- inhibition at 10 µM ([2]; read-out: % Inhibition TxB2): 8%
- % Change in Edema 10 min ([3]; 1 mg/kg i.p.): -50%
- % Change in Edema 30 min ([3]; 1 mg/kg i.p.): -65%
- % Change in Edema 60 min ([3]; 1 mg/kg i.p.): -1%
- % Change in Edema 10 min ([3]; 10 mg/kg i.p.): -38%
- % Change in Edema 30 min ([3]; 10 mg/kg i.p.): -44%
- % Change in Edema 60 min ([3]; 10 mg/kg i.p.): -18%
- % Change in Edema 10 min ([3]; 200 mg/kg p.o.): -40%
- % Change in Edema 30 min ([3]; 200 mg/kg p.o.): -33%
- % Change in Edema 60 min ([3]; 200 mg/kg p.o.): -43%

SMILES: CCCCCCCC/C=C\CCCCCCCC(=O)C1=C(O)COC1=O [Example 9, (Z)-4-Hydroxy-3-(1-oxo-9-octadecenyl)-2(5H)-furanone]
- inhibition at 10 µM ([1]; read-out: % Inhibition LTB4): 1%
- inhibition at 10 µM ([2]; read-out: % Inhibition TxB2): 31%
- % Change in Edema 10 min ([4]; 10 mg/kg i.v.): -48%
- % Change in Edema 30 min ([4]; 10 mg/kg i.v.): -42%
- % Change in Edema 60 min ([4]; 10 mg/kg i.v.): -48%
- % Change in Edema 10 min ([4]; 100 mg/kg p.o.): -1%
- % Change in Edema 30 min ([4]; 100 mg/kg p.o.): +1.5%
- % Change in Edema 60 min ([4]; 100 mg/kg p.o.): +7.1%
- % Inhibition (carrageenan paw edema; 100 mg/kg peroral (dose column)): 41%

SMILES: CCCCCCCCCC(=O)C1=C(O)COC1=O [Example 1, 4-Hydroxy-3-(1-oxodecyl)-2(5H)-furanone]
- inhibition at 50 µM ([1]; at 50 μM): 60%
- inhibition at 50 µM ([2]; at 50 μM): 71%
- % Change in Edema 10 min ([4]; 10 mg/kg i.v.): -51%
- % Change in Edema 30 min ([4]; 10 mg/kg i.v.): -43%
- % Change in Edema 60 min ([4]; 10 mg/kg i.v.): -23%
- % Change in Edema 10 min ([4]; 100 mg/kg p.o.): -36%
- % Change in Edema 30 min ([4]; 100 mg/kg p.o.): -29%
- % Change in Edema 60 min ([4]; 100 mg/kg p.o.): -29%
- % Inhibition (carrageenan paw edema; 50 mg/kg peroral): 40%
